Like-named read-outs stand apart in the source and are kept apart here. Ends that are not written are not given here.
Key:
Format in all cases: cell-based
[1] = test system: human gastric cancer cell lines (FU97); conditions: for Cell viability (%) of test cells: human, 48 h
Description: (§1) The antitumor activity of Sample 1 synthesized in the above Test Example 1 with respect to human-derived cultured tumor cells was evaluated. Currently commercially available human gastric cancer cell lines (FU97), human alveolar basal epithelial adenocarcinoma cell lines (A549), human breast cancer cell lines (MDA-MB-231), and human melanoma cell lines (A375) were prepared as test tumor cells. In addition, normal human mammary epithelial cell culture lines (MCF-12F) were prepared for comparison. A DMEM culture medium including 10 μg/mL of insulin, 50 unit/mL of penicillin, 50 μg/mL of streptomycin, and 10% fetal bovine serum (FBS) (product, commercially available from Wako Pure Chemical Industries, Ltd.) The above five types of cell lines were cultured in respective designated culture solutions. The cell lines were cultured so that the number of cells per well in a 96-hole (well) plate was about 5×10^3. Here, an amount of the culture solution per well was 100 μL. The 96-well plate was then placed in a CO2 incubator. Then, pre-incubation was performed under conditions of 37° C. and 5% CO2 for about 1 day (about 23 hours). Then, regarding the culture solution for the peptide addition area, culture solutions containing Sample 1 for each concentration were prepared so that the concentration of Sample 1 was 6.25 μM, 12.5 μM or 25 μM and supplied to wells (that is, wells after the pre-incubation) in which 90 μL of cells to be evaluated were cultured in each well. On the other hand, regarding the culture solution for the comparative test area, a culture solution to which no Sample 1 was added was prepared, and supplied to wells (that is, wells after the pre-incubation) in which 90 μL of cells to be evaluated were cultured in each well. The 96-well plate was then placed in a CO2 incubator, and incubated under conditions of 37° C. and 5% CO2 for 48 hours. […] Then, the absorbance at a wavelength of 450 nm (value corrected by the absorbance at a wavelength of 620 nm: A450-A620) was measured based on the reduction of the tetrazolium salt in the culture solution. Then, the cell viability was calculated according to a colorimetric method. In the test areas (test areas 1 to 3) in the peptide addition area, the cell viability of each of the above five types of cell lines was calculated as a relative value when a measured value (measurement absorbance) of the comparative test area in the same cell lines was set as 100%. That is, regarding each of the above five types of cell lines, the cell viability (%) was calculated by dividing the measurement absorbance of the test areas (test areas 1 to 3) in the peptide addition area by the measurement absorbance of the comparative test area in the same cell lines and multiplying by 100.

[2] = test system: human breast cancer cell lines (MDA-MB-231); conditions: for Cell viability (%) of test cells: human, 48 h
Description: as §1, with “0.1 mM” for “10 μg/mL”, “non-essential amino acids,” for “insulin,”, “FBS.” for “fetal bovine serum (FBS) (product, commercially available from Wako Pure Chemical Industries, Ltd.)”

[3] = test system: tumor cells derived from non-human mammals; assay: Antitumor activity on tumor cells derived from non-human mammals (data not shown); conditions: detailed data not shown

MACLGFQRHKAQLNLATRTWPCTLLFFLLFIPVFCKKRTLRKTDRKKR-NH2 (cysteines drawn unpaired) [Sample 1]
Specific cell viability of test tumor cells ([1]; FU97, 12.5 μM Sample 1, (cell viability of test tumor cells)/(cell viability of MCF-12F cells)×100): 23.0
Cell viability (%) of test cells ([1]; 6.25 μM): 29.4%
Cell viability (%) of test cells ([1]; 12.5 μM): 26.3%
Cell viability (%) of test cells ([1]; 25 μM): 30%
Specific cell viability of test tumor cells ([2]; MDA-MB-231, 12.5 μM Sample 1, (cell viability of test tumor cells)/(cell viability of MCF-12F cells)×100): 47.9
Cell viability (%) of test cells ([2]; 6.25 μM): 67.8%
Cell viability (%) of test cells ([2]; 12.5 μM): 54.7%
Cell viability (%) of test cells ([2]; 25 μM): 41.6%
antitumor activity and tumor cell-selective antitumor activity [3]: high antitumor activity and tumor cell-selective antitumor activity

Source: patent publication US11472845B2, “Antitumor peptide and use thereof” (TOAGOSEI CO., LTD., priority 2019, dated 2022)
